From article PMC3509626, “Antifungal Activity of (KW)n or (RW)n Peptide against Fusarium solani and Fusarium oxysporum” (International Journal of Molecular Sciences, 2012) come the findings set out here.

Holding throughout (assay type): cell-based
Assay [1] has as its system Fusarium solani (KCTC 6326). The conditions noted are these: for growth inhibition (conidial germination and hyphal growth): F. solani, peptide at 64 μM, 24 h, 25 °C; for concentration at which antifungal effects were exhibited (below MIC): KCTC 6326, 24 h. The protocol:
(§1) Rink amide 4-methylbenzhydrylamine resin, fluoren-9-ylmethoxycarbonyl (Fmoc) amino acids, and other reagents for peptide synthesis were purchased from Calibiochem-Novabiochem (La Jolla, CA, USA). For the quantitative antifungal assay and fungicidal activity assay, the following fungal strains were obtained from the Korea Collection for Type Cultures (KCTC): F. solani (KCTC 6326) and F. oxysporum (KCTC 6076). Fungal cells were grown on PDA (potato dextrose agar) plate and subcultured for 2–3 weeks.
(§2) Fungal fragments, precultured in mycelial growth medium, were placed in the center of PDA plates, after which the cultures were incubated for 96 h at 25 °C in the dark. After incubation, spores were isolated from cultures growing in half-strength PDA. Spore concentrations were then adjusted to 5 × 10^4 spores/mL in half-strength PDA, after which 80 μL was added to the wells of sterile 96-well flat-bottomed microtiter plates along with 20 μL of peptide or media to give final concentrations of 1–64 μM. Several wells were kept untreated as a control to monitor fungal growth. Plates were incubated in the dark at 25 °C for 24 h before hyphal growth was determined by measuring optical density at 595 nm using a microtiter plate Elisa reader (Molecular Devices, Sunnyvale, CA, USA). Each test was performed in triplicate. Percentages of inhibition were then calculated (Figure 1) (0% inhibition indicates growth equal to control sample (only media)). The lowest concentration of peptide inhibiting fungal growth was monitored microscopically with an inverted light microscope (IX71, Olympus, Tokyo, Japan).

For assay [2], the system named is Fusarium oxysporum (KCTC 6076). The conditions noted are these: F. oxysporum, peptide at 64 μM, 24 h, 25 °C. As to the method: as §1, §2
In assay [3] the test system is Fusarium solani (KCTC 6326). The conditions noted are these: KCTC 6326, 3 h. As to the method: as §1
(§3) The spore suspension at a concentration of 5 × 10^4 spores/mL (80 μL) was transferred to a 96-well microtiter plate along with 20 μL of (KW)n or (RW)n peptides (n = 3, 4, and 5), melittin, or media to give final peptide concentrations of 4–32 μM. Plates were incubated for 3 h before the addition of 10 μL of 3-(4,5-dimethylthiazol-2-yl)-2,5-diphenyltetrazolium bromide (MTT; 5 mg/mL; Sigma). Plates were then incubated again for 16 h at room temperature, followed by the addition of 100 μL of MTT solvent (0.1 N HCl in anhydrous isopropyl alcohol). Presence of MTT/formazan was monitored spectrophotometrically by measuring the absorbance at 570 nm and then subtracting the background absorbance at 690 nm using a Versa-Max microplate Elisa reader (Molecular Devices, Sunnyvale, CA, USA). Each measurement was conducted in triplicate.

For assay [4], the system named is Fusarium oxysporum (KCTC 6076). Conditions: KCTC 6076, 3 h. The protocol: as §1, §3

Where two headings read alike, the source gives them in different places. Ends that are not written are not given here.

Turning to “KWKW-NH2 [(KW)2, tetrameric Lys-Trp repeat peptide amide]”, the “growth inhibition (conidial germination and hyphal growth)” value is listed as “did not inhibit growth” in assay [1], “non-inhibition” in assay [1] (listed as (KW)2-NH2), “did not inhibit growth” in assay [2] and “non-inhibition” in assay [2] (listed as (KW)2-NH2).

Turning to “RWRW-NH2 [(RW)2, tetrameric Arg-Trp repeat peptide amide]”, the “growth inhibition (conidial germination and hyphal growth)” value in assay [1] is “did not inhibit growth”; in assay [1] (listed as (RW)2-NH2) it was “non-inhibition”; in assay [2] it was “did not inhibit growth”; in assay [2] (listed as (RW)2-NH2), “non-inhibition”.

As to KWKWKWKWKW-NH2 [(KW)5, KWKWKWKWKW-NH2], the cells killed in assay [3] is reported as 72%; in assay [4], 76%.

Take KWKWKWKW-NH2 [(KW)4, KWKWKWKW-NH2]: the cells killed in assay [3] is on record as 68%; in assay [4], 74%. Moreover, in assay [1], the “concentration at which antifungal effects were exhibited (below MIC)” value is 4 µM.

Turning to `N=C(N)NCCC[C@H](NC(=O)[C@H](Cc1c[nH]c2ccccc12)NC(=O)[C@H](CCCNC(=N)N)NC(=O)[C@H](Cc1c[nH]c2ccccc12)NC(=O)[C@H](CCCNC(=N)N)NC(=O)[C@H](Cc1c[nH]c2ccccc12)NC(=O)[C@H](CCCNC(=N)N)NC(=O)[C@H](Cc1c[nH]c2ccccc12)NC(=O)[C@@H](N)CCCNC(=N)N)C(=O)N[C@@H](Cc1c[nH]c2ccccc12)C(N)=O` [(RW)5, RWRWRWRWRW-NH2], the cells killed in assay [3] is recorded as 75%; in assay [4], 79%.

Take RWRWRWRW-NH2 [(RW)4, RWRWRWRW-NH2]: the cells killed is reported as 69% in assay [3] and 76% in assay [4]. Besides, in assay [1], the “concentration at which antifungal effects were exhibited (below MIC)” value was 4 µM.
